Tests used:
[1] = molecular target: T1, Muscarinic acetylcholine receptor M3 (Homo sapiens, UniProt P20309); test: Evaluated for its binding affinity at human muscarinic receptor m3 by the displacement of [3H]NMS binding using membranes from transfected chinese hamster ovarian cell; format: cell-based
Target sequence in this assay (P20309 whole entry): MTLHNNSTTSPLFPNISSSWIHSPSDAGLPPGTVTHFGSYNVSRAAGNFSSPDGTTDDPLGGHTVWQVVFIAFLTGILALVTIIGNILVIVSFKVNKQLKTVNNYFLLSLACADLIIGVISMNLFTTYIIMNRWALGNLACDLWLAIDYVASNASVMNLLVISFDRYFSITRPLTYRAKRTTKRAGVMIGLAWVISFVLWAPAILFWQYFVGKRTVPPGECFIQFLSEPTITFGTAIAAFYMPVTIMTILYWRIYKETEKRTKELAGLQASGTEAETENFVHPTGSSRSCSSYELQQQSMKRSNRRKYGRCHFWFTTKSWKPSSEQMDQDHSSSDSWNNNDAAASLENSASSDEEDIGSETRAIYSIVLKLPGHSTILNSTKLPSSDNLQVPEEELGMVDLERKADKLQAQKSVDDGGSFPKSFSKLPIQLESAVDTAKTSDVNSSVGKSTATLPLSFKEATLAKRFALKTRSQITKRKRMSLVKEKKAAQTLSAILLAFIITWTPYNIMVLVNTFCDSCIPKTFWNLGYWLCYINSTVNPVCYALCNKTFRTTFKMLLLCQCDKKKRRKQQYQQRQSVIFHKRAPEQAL

[2] = molecular target: T2, Muscarinic acetylcholine receptor M1 (Homo sapiens, UniProt P11229); test: Evaluated for its binding affinity at human muscarinic receptor m1 by displacement of [3H]NMS binding using membranes in transfected chinese hamster ovarian cell; format: cell-based
T2 sequence (P11229 whole entry): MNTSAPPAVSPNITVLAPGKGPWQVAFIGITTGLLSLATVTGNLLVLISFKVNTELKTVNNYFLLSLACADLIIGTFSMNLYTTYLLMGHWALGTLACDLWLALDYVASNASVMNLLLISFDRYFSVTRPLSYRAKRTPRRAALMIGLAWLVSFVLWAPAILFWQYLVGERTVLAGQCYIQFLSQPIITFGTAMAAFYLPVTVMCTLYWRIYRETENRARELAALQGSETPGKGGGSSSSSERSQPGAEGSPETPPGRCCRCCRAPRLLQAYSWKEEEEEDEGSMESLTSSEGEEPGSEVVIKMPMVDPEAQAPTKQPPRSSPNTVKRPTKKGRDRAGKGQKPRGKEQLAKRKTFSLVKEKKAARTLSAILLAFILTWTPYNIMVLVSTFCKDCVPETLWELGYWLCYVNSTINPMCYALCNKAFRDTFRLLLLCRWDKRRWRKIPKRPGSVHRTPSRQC

[3] = molecular target: T3, Muscarinic acetylcholine receptor M2 (Homo sapiens, UniProt P08172); test: Evaluated for its binding affinity at human muscarinic receptor m2 by displacement of [3H]NMS binding using membranes from transfected chinese hamster ovarian cell
T3 sequence (P08172 whole entry): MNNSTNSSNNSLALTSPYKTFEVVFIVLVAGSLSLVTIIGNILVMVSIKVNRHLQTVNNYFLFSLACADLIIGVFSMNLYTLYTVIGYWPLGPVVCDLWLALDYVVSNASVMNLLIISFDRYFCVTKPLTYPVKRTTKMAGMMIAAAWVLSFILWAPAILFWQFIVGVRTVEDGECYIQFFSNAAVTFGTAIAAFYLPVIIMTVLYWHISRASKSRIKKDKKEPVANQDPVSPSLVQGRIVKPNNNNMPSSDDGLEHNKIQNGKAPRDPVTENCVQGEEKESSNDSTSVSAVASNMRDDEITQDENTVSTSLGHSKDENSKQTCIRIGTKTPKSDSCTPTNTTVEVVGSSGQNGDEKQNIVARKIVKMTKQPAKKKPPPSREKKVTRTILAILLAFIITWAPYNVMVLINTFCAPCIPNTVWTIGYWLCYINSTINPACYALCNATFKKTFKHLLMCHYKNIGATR

[4] = molecular target: T4, Muscarinic acetylcholine receptor M5 (Homo sapiens, UniProt P08912); test: Evaluated for its binding affinity at human muscarinic receptor m5 by the displacement of [3H]NMS binding using membranes from transfected chinese hamster ovarian cell
T4 sequence (P08912 whole entry): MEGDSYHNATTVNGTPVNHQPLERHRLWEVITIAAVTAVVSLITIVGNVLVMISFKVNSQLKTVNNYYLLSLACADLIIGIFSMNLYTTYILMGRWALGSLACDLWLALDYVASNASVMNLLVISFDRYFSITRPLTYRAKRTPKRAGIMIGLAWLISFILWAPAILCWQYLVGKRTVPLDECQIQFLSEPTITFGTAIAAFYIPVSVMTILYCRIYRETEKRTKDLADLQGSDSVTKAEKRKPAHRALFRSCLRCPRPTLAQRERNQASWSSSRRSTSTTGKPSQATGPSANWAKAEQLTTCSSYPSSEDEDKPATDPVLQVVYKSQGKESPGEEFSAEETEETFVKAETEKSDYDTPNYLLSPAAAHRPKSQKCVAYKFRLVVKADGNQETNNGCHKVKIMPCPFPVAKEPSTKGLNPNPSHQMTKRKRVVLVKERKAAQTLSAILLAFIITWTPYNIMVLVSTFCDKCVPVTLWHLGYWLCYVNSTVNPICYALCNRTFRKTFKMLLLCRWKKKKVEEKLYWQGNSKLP

[5] = molecular target: T5, Muscarinic acetylcholine receptor M4 (Homo sapiens, UniProt P08173); test: Evaluated for its binding affinity at human muscarinic receptor m4 by the displacement of [3H]NMS binding using membranes from transfected chinese hamster ovarian cell
T5 sequence (P08173 whole entry): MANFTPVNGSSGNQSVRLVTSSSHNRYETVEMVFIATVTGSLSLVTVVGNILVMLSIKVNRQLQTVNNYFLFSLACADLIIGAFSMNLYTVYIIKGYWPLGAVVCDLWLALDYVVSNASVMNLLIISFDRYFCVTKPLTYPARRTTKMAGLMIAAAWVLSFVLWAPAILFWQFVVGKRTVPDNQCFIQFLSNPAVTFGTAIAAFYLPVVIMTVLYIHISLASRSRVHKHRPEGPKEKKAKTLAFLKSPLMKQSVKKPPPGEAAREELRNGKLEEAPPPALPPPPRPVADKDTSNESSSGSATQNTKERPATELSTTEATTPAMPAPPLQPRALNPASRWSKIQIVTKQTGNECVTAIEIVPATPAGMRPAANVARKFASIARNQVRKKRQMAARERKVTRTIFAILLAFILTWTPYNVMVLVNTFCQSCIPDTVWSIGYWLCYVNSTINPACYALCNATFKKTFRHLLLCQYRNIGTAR

[6] = molecular target: T6, Muscarinic acetylcholine receptor M2 (Homo sapiens) (UniProt P08172); test: Compound was evaluated for its binding affinity at human muscarinic receptor m2 by displacement of [3H]NMS radioligand using membranes from transfected chinese hamster ovarian cell at 100 nM concentration
T6 sequence (whole entry): T3 sequence (P08172 whole entry)

[7] = molecular target: T1, Muscarinic acetylcholine receptor M3; test: Compound was evaluated for its binding affinity at human muscarinic receptor Hm3 by the displacement of [3H]NMS radioligand using membranes from transfected chinese hamster ovarian cell at 1000 nM concentration
Target sequence in this assay (P20309 whole entry, looked up): as the sequence (P20309 whole entry) above

[8] = molecular target: T7, Muscarinic acetylcholine receptor M5 (Homo sapiens) (UniProt P08912); test: Compound was evaluated for its binding affinity at human muscarinic receptor Hm5 by the displacement of [3H]NMS radioligand using membranes from transfected chinese hamster ovarian cell at 100 nM concentration
T7 sequence (whole entry): T4 sequence (P08912 whole entry)

[9] = molecular target: T8, Muscarinic acetylcholine receptor M4 (Homo sapiens) (UniProt P08173); test: Compound was evaluated for its binding affinity at human muscarinic receptor Hm4 by the displacement of [3H]-NMS radioligand using membranes from transfected chinese hamster ovarian cell at 1000 nM concentration
T8 sequence (whole entry): T5 sequence (P08173 whole entry)

[10] = molecular target: T1, Muscarinic acetylcholine receptor M3; test: Compound was evaluated for its binding affinity at human muscarinic receptor Hm3 by the displacement of [3H]NMS radioligand using membranes from transfected chinese hamster ovarian cell at 100 nM concentration
Target sequence in this assay (P20309 whole entry, looked up): as the sequence (P20309 whole entry) above

[11] = molecular target: T6, Muscarinic acetylcholine receptor M2 (Homo sapiens); test: Compound was evaluated for its binding affinity at human muscarinic receptor m2 by the displacement of [3H]NMS radioligand using membranes from transfected chinese hamster ovarian cell at 1000 nM concentration
[12] = molecular target: T8, Muscarinic acetylcholine receptor M4 (Homo sapiens); test: Compound was evaluated for its binding affinity at human muscarinic receptor Hm4 by the displacement of [3H]NMS radioligand using membranes from transfected chinese hamster ovarian cell at 100 nM concentration
[13] = molecular target: T7, Muscarinic acetylcholine receptor M5 (Homo sapiens); test: Compound was evaluated for its binding affinity at human muscarinic receptor Hm5 by the displacement of [3H]-NMS radioligand using membranes from transfected chinese hamster ovarian cell at 1000 nM concentration

IC50 [1] [µM] | IC50 [2] [µM] | IC50 [3] [µM] | IC50 [4] [µM] | IC50 [5] [nM] | inhibition [6] [%] | inhibition [7] [%] | inhibition [8] [%] | inhibition [9] [%] | inhibition [10] [%] | inhibition [11] [%] | inhibition [12] [%] | inhibition [13] [%] | Compound
3.07 | 1.96 | 1.65 | 2.03 | 2630 |  |  |  |  |  |  |  |  | CCOC(=O)c1c(C)[nH]c2ccc3c(c12)CN1CCc2cc(Oc4ccccc4)ccc2C1O3 (stereo unspecified)
32.6 | 32.7 | 14.7 | 43.5 | 4740 |  |  |  |  |  |  |  |  | COc1cc2c(cc1OC)C1Oc3ccc4[nH]c(C)cc4c3CN1CC2 (stereo unspecified)
15.3 | 10.8 | 1.15 | 18 | 9740 |  |  |  |  |  |  |  |  | COc1ccc2c(c1)CCN1Cc3c(ccc4[nH]c(C)cc34)OC21 (stereo unspecified)
2.83 | 6.11 | < 1 | 1.73 | 1470 |  |  |  |  |  |  |  |  | CCOC(=O)c1c(C)[nH]c2ccc3c(c12)CN1CCc2cccc(C)c2C1O3 (stereo unspecified)
12.6 | 7.12 | 4.66 | 5.76 | 9930 |  |  |  |  |  |  |  |  | COC(=O)c1c(C)[nH]c2ccc3c(c12)CN1CCc2ccccc2C1O3 (stereo unspecified)
10.3 | 8.22 | 7.7 | 47.4 | 1500 |  |  |  |  |  |  |  |  | CCOC(=O)c1c[nH]c2ccc3c(c12)CN1CCc2cc(OC)c(OC)cc2C1O3 (stereo unspecified)
10.8 | 9.02 | 3 | 8.21 | 6030 |  |  |  |  |  |  |  |  | CCOC(=O)c1c(C)[nH]c2ccc3c(c12)CN1CCc2ccc(OC)cc2C1O3 (stereo unspecified)
5.49 | 5.01 | 2.68 | 4.19 | 3710 |  |  |  |  |  |  |  |  | CCOC(=O)c1c(C)[nH]c2ccc3c(c12)CN1CCc2ccccc2C1O3 (stereo unspecified)
 |  |  |  |  | 14.7 | 0 | 0.9 | 19.9 | 0 | 29.9 | 0 | 1.6 | CCOC(=O)c1c(C)[nH]c2ccc3c(c12)C[N+]1(C)CCc2cc(OC)ccc2C1O3 (stereo unspecified)
3.7 | 5.62 | 4.56 | 6 | 334 |  |  |  |  |  |  |  |  | CCOC(=O)c1c[nH]c2ccc3c(c12)CN1CCc2cc(OC)ccc2C1O3 (stereo unspecified)
0.95 | 6.56 | 3.44 | 7.41 | 90.7 |  |  |  |  |  |  |  |  | CCOC(=O)c1c(C)[nH]c2ccc3c(c12)CN1CCc2cc(OC)ccc2C1O3 (stereo unspecified)
3.39 | 3.79 | 13.1 | 4.09 | 501 |  |  |  |  |  |  |  |  | COC(=O)c1c(C)[nH]c2ccc3c(c12)CN1CCc2cc(OC)ccc2C1O3 (stereo unspecified)
2.72 | 3.28 | 9.52 | 3.88 | 465 |  |  |  |  |  |  |  |  | CCOC(=O)c1c(C)[nH]c2ccc3c(c12)CN1CCc2cc(C)ccc2C1O3 (stereo unspecified)
1.62 | 12.9 | 9.34 | 26.6 | 301 |  |  |  |  |  |  |  |  | CCOC(=O)c1c(C)[nH]c2ccc3c(c12)CN1CCc2cc(OC)c(OC)cc2C1O3 (stereo unspecified)
1.48 | 1.96 | 1.91 | 3.81 | 360 |  |  |  |  |  |  |  |  | CCCOC(=O)c1c(C)[nH]c2ccc3c(c12)CN1CCc2cc(OC)ccc2C1O3 (stereo unspecified)
2.63 | 4.25 | 2.56 | 8.62 | 1620 |  |  |  |  |  |  |  |  | CCOC(=O)c1c(C)[nH]c2ccc3c(c12)CN1CCc2cc(OCC)ccc2C1O3 (stereo unspecified)
2.82 | 4.06 | 2.64 | 4.74 | 2050 |  |  |  |  |  |  |  |  | COc1ccc2c(c1)CCN1Cc3c(ccc4[nH]c(C)c(C(=O)OC(C)C)c34)OC21 (stereo unspecified)

Compound | IC50 [1] [µM] | IC50 [2] [µM] | IC50 [3] [µM] | IC50 [4] [µM] | IC50 [5] [nM] | inhibition [6] [%] | inhibition [7] [%] | inhibition [8] [%] | inhibition [9] [%] | inhibition [10] [%] | inhibition [11] [%] | inhibition [12] [%] | inhibition [13] [%]
CC1OC(=O)[C@H]2C[C@H]3CCCC[C@@H]3[C@@H](/C=C/C3CCC[C@H](C)N3C)[C@@H]12 (single isomer, unassigned) [HIMBACINE] |  | 0.548 | 0.0175 | 1.02 |  |  |  |  |  |  |  |  | 

— ChEMBL document CHEMBL1131391, “Identification and characterization of m4 selective muscarinic antagonists” (Bioorg Med Chem Lett, 1998)
